Like-named read-outs stand apart in the source and are kept apart here.
What was measured:
SARS-CoV-2 = test: microbe, parasite or virus in culture; type: cell-based; conditions: 50% SARS-CoV-2 infected cell death inhibitory concentration, VeroE6/TMPRSS2 cells, 3 days culture
SARS-CoV-2 3CL protease = SARS-CoV-2 3CL protease (Severe acute respiratory syndrome coronavirus 2, UniProt P0DTD1); test: biochemical; conditions: 50% SARS-CoV-2 3CL protease inhibitory concentration, read-out: IC50
[1] = Severe acute respiratory syndrome coronavirus 2, VeroE6/TMPRSS2, 72 h, CellTiter-Glo 2.0
[2] = Severe acute respiratory syndrome coronavirus 2, VeroE6/TMPRSS2, 72 h, class symbols

Structure (SMILES) | EC50 (SARS-CoV-2; [1]) | IC50 (SARS-CoV-2 3CL protease; RapidFire MS) | EC50 (SARS-CoV-2; [2]) | IC50 (SARS-CoV-2 3CL protease; given as class symbols) | EC50 (SARS-CoV-2; class symbols)
COc1ccc(Nc2nc(=O)n(Cc3cc4c([nH]c3=O)CCC4)c(=O)n2Cc2cc(F)c(F)c(F)c2)cc1 [II-0343] | 4.14 µM | 0.31 µM |  |  | 
O=c1nc(Nc2cc3cn(CCO)nc3cc2Cl)n(Cc2cc(F)c(F)c(Cl)c2)c(=O)n1Cc1ncccn1 [II-0294] |  |  | 1 to 10 µM | < 0.1 µM | 
Cc1cncc(-n2c(=O)nc(Nc3cc4cn(CC(F)F)nc4cc3Cl)n(Cc3ccc(F)c(C#N)c3)c2=O)c1 [II-0089] | 0.182 µM | 0.0036 µM |  |  | 
COc1ccc(Nc2nc(=O)n(-c3cncc(C4CC4)c3)c(=O)n2Cc2cc(F)c(F)c(F)c2)cc1 [II-0272] | 1.59 µM | 0.18 µM |  |  | 
Cn1cc2cc(Nc3nc(=O)n(-c4cncc(Cl)c4)c(=O)n3Cc3cc(C#N)c(F)cc3Cl)ccc2n1 [II-0282] | 0.26 µM | 0.0088 µM |  |  | 
Cn1cnc(Cn2c(=O)nc(Nc3cc4cn(C)nc4cc3Cl)n(Cc3cc(Cl)ccc3F)c2=O)n1 [II-0361] |  |  | < 1 µM | < 0.1 µM | 
Cn1cnc(Cn2c(=O)nc(Nc3cc4cn(C5CCOCC5)nc4cc3Cl)n(Cc3cc(Cl)c(F)cc3F)c2=O)n1 [II-0098] |  |  | 1 to 10 µM | < 0.1 µM | 
Cc1cncc(-n2c(=O)nc(Nc3cc4cn(C)nc4cc3F)n(Cc3cc(C#N)c(F)cc3C)c2=O)c1 [II-0504] |  |  | < 1 µM | < 0.1 µM | 
Cc1nc(Cn2cc3cc(Nc4nc(=O)n(Cc5ccc[nH]c5=O)c(=O)n4Cc4cc(F)c(F)c(F)c4)c(Cl)cc3n2)no1 [II-0344] |  |  | 1 to 10 µM | < 0.1 µM | 
Cc1cncc(-n2c(=O)nc(Nc3cc4cn(C)nc4cc3Cl)n(Cc3cc(C#N)c(F)cc3C(F)F)c2=O)c1 [II-0583] |  |  | < 1 µM | < 0.1 µM | 
COc1ccc(Nc2nc(=O)n(Cc3ccc[nH]c3=O)c(=O)n2Cc2ccc(Cl)s2)cc1 [Compound I-0321] |  | 2.1 µM | < 1 µM | 1 to 10 µM | 
CNc1nc2cc(F)c(Nc3nc(=O)n(-c4cncc(C)c4)c(=O)n3Cc3cc(Cl)c(F)cc3F)cc2s1 [II-0385] |  |  | < 1 µM | < 0.1 µM | 
Cc1cncc(-n2c(=O)nc(Nc3cc4c(cc3Cl)OC(C)C4)n(Cc3ccc(F)c(C#N)c3)c2=O)c1 (stereo not shown) [II-0117] |  |  |  | < 0.1 µM | < 1 µM
CCn1cc2cc(Nc3nc(=O)n(-c4cncc(C)c4)c(=O)n3Cc3cc(Cl)c(F)cn3)c(Cl)cc2n1 [II-0494] | 0.878 µM | 0.024 µM |  |  | 
Cn1cc2cc(Nc3nc(=O)n(-c4cncc(Cl)c4)c(=O)n3Cc3cc(F)c(F)c(C#N)c3)ccc2n1 [II-0284] | 0.184 µM | 0.0092 µM |  |  | 
COc1cncc(-n2c(=O)nc(Nc3cc4cn(C)nc4cc3Cl)n(Cc3ccc(F)c(C#N)c3)c2=O)c1 [II-0578] |  |  | 1 to 10 µM | < 0.1 µM | 
Cn1cnc(Cn2c(=O)nc(Nc3cc4cn(C)nc4cc3Cl)n(Cc3cc(F)c(F)c(Cl)c3)c2=O)n1 [II-0045] | 0.218 µM | 0.0047 µM |  |  | 
Cc1cncc(-n2c(=O)nc(Nc3cc4cn(C)nc4cc3F)n(Cc3cc(F)c(F)c(C#N)c3)c2=O)c1 [II-0054] |  |  | < 1 µM | < 0.1 µM | 
Cn1cc2cc(Nc3nc(=O)n(-c4cncc(Cl)c4)c(=O)n3Cc3ccc(F)c(C#N)c3)ccc2n1 [II-0608] | 0.487 µM | 0.019 µM |  |  | 

Structure (SMILES) | EC50 (SARS-CoV-2; [1]) | IC50 (SARS-CoV-2 3CL protease; RapidFire MS) | EC50 (SARS-CoV-2; [2]) | IC50 (SARS-CoV-2 3CL protease; given as class symbols) | EC50 (SARS-CoV-2; class symbols)
Cc1cncc(-n2c(=O)nc(Nc3cc4cn(C)nc4cc3Cl)n(Cc3cc(F)c(F)cc3Cc3cccc(CO)c3)c2=O)c1 [II-0025] |  |  | 8 µM | < 0.1 µM | 
Cn1cnc(Cn2c(=O)nc(Nc3cc4cn(C)nc4cc3Cl)n(Cc3ccc(F)cc3F)c2=O)n1 [II-0202] |  |  | 1 to 10 µM | < 0.1 µM | 
O=c1[nH]c2ncccc2cc1Cn1c(=O)nc(Nc2cc3cn(CCO)nc3cc2Cl)n(Cc2cc(F)c(F)c(F)c2)c1=O [Compound I-0237] | 3.39 µM | 0.0042 µM |  |  | 
Cc1cncc(-n2c(=O)nc(Nc3cc4cn(CC(=O)N(C)C)nc4cc3Cl)n(Cc3cc(F)c(F)c(F)c3)c2=O)c1 [II-0281] |  |  | 1 to 10 µM | < 0.1 µM | 
Cn1cnc(Cn2c(=O)nc(Nc3cc4cn(CC5CC5)nc4cc3Cl)n(Cc3cc(Cl)c(F)cn3)c2=O)n1 [II-0269] |  |  | 1 to 10 µM | < 0.1 µM | 
Cc1cncc(-n2c(=O)nc(Nc3cc4cn(C)nc4cc3Cl)n(Cc3cc(F)c(F)cc3OCC3CCC3)c2=O)c1 [II-0551] |  |  | < 1 µM | < 0.1 µM | 
Cn1cnc(Cn2c(=O)nc(Nc3cc4cn(CC(F)F)nc4cc3Cl)n(Cc3cc(F)c(F)c(F)c3)c2=O)n1 [Compound I-0433] | 0.72 µM | 0.01 µM | < 1 µM | < 0.1 µM | 
O=c1[nH]cccc1Cn1c(=O)nc(Nc2cc3cn(CC(F)F)nc3cc2Cl)n(Cc2cc(F)c(F)c(F)c2)c1=O [Compound I-0284] |  |  | < 1 µM | < 0.1 µM | 
Cn1cnc(Cn2c(=O)nc(Nc3cc4cn(CC(F)F)nc4cc3Cl)n(Cc3cc(F)c(F)cc3F)c2=O)n1 [II-0163] | 0.342 µM | 0.0088 µM |  |  | 
Cn1cnc(Cn2c(=O)nc(Nc3cc4cn(CC(=O)N5CCOCC5)nc4cc3Cl)n(Cc3cc(Cl)c(F)cc3F)c2=O)n1 [II-0132] | 49.8 µM | 0.0025 µM |  |  | 
COc1ccc(Nc2nc(=O)n(Cc3cc4cccnc4[nH]c3=O)c(=O)n2Cc2cc(F)c(F)c(F)c2)cc1 [Compound I-0084] |  |  | 1 to 10 µM | < 0.1 µM | 
CNc1cncc(-n2c(=O)nc(Nc3cc4cn(C)nc4cc3Cl)n(Cc3cc(F)c(F)c(Cl)c3)c2=O)c1 [II-0601] |  |  | < 1 µM | < 0.1 µM | 
COc1ccc(Nc2nc(=O)n(Cc3ccc[nH]c3=O)c(=O)n2Cc2ccc(F)c(Cl)c2)cc1 [Compound I-0252] |  |  | 1 to 10 µM | < 0.1 µM | 
COc1ccc(Nc2nc(=O)n(Cc3c[nH]c(=O)[nH]c3=O)c(=O)n2Cc2cc(F)c(F)c(F)c2)c(Cl)c1 [Compound I-0404] |  |  | 1 to 10 µM | < 0.1 µM | 
CC(=O)Nc1nc2cc(F)c(Nc3nc(=O)n(-c4cncc(C)c4)c(=O)n3Cc3ccc(F)c(C#N)c3)cc2s1 [II-0011] |  |  | 1 to 10 µM | < 0.1 µM | 
Cc1cncc(-n2c(=O)nc(Nc3ccc4nc(NCC(F)(F)F)sc4c3)n(Cc3ccc(F)c(C#N)c3)c2=O)c1 [II-0298] |  |  | 1 to 10 µM | < 0.1 µM | 
Cc1cc2c(cc1Nc1nc(=O)n(-c3cncc4ccccc34)c(=O)n1Cc1ccc(F)c(C#N)c1)CCO2 [II-0160] |  |  | < 1 µM | < 0.1 µM | 
Cn1cnc(Cn2c(=O)nc(Nc3cc4cn(C)nc4cc3Cl)n(Cc3cc(F)cc(F)c3F)c2=O)n1 [II-0189] |  |  | 1 to 10 µM | < 0.1 µM | 
Cn1cc2cc(Nc3nc(=O)n(CC(=O)NC4CCCCC4)c(=O)n3Cc3cc(F)c(F)c(F)c3)c(Cl)cc2n1 [II-0330] | 42.2 µM | 3.6 µM |  |  | 

Structure (SMILES) | EC50 (SARS-CoV-2; [1]) | IC50 (SARS-CoV-2 3CL protease; RapidFire MS) | EC50 (SARS-CoV-2; [2]) | IC50 (SARS-CoV-2 3CL protease; given as class symbols) | EC50 (SARS-CoV-2; class symbols)
COc1ccc(Nc2nc(=O)n(Cc3ccc[nH]c3=O)c(=O)n2Cc2ccc(F)c(C#N)c2)cc1 [Compound I-0253] |  |  | 1 to 10 µM | < 0.1 µM | 
Cn1cnc(Cn2c(=O)nc(Nc3cc4cn(C)nc4cc3Cl)n(Cc3cc(F)c(F)cc3Cl)c2=O)n1 [II-0405] |  |  | < 1 µM | < 0.1 µM | 
CNc1nc2cc(F)c(Nc3nc(=O)n(-c4cncc(C)c4)c(=O)n3Cc3cc(C#N)ccc3Cl)cc2s1 [II-0292] | 0.434 µM | 0.0039 µM |  |  | 
Cn1cnc(Cn2c(=O)nc(N3CCc4ccccc4CC3)n(Cc3cc(F)c(F)c(F)c3)c2=O)n1 [II-0550] | 6.42 µM | 1.1 µM |  |  | 
Cn1cnc(Cn2c(=O)nc(Nc3cc4cn(C)nc4cc3F)n(Cc3cc(F)c(F)c(Cl)c3)c2=O)n1 [II-0060] |  |  | 1 to 10 µM | < 0.1 µM | 
COc1ccc(Nc2nc(=O)n(-c3cncc(C)c3)c(=O)n2Cc2ccc(F)c(C#N)c2)c(C)c1 [II-0162] |  |  | < 1 µM | < 0.1 µM | 
Cc1nc2cc(Cl)c(Nc3nc(=O)n(-c4cccc5ccccc45)c(=O)n3Cc3cc(F)c(F)c(F)c3)cc2n1C [Compound I-0456] |  |  | 1 to 10 µM | < 0.1 µM | 
Cc1cncc(-n2c(=O)nc(Nc3cc4sc(NCC(F)(F)F)nc4cc3F)n(Cc3ccc(F)c(C#N)c3)c2=O)c1 [II-0244] |  |  | 1 to 10 µM | < 0.1 µM | 
CNc1nc2cc(Cl)c(Nc3nc(=O)n(Cc4ncn(C)n4)c(=O)n3Cc3cc(F)c(F)cc3F)cc2s1 [II-0048] |  |  | < 1 µM | < 0.1 µM | 
Cc1cncc(-n2c(=O)nc(Nc3cc4c(cc3Cl)nc(C(F)F)n4C)n(Cc3ccc(F)c(C#N)c3)c2=O)c1 [II-0106] |  |  | 1 to 10 µM | < 0.1 µM | 
CCc1cc(F)c(F)cc1Cn1c(Nc2cc3cn(C)nc3cc2Cl)nc(=O)n(-c2cncc(C)c2)c1=O [II-0068] |  |  | < 1 µM | < 0.1 µM | 
COc1ccc(Nc2nc(=O)n(-c3cc(C)cnn3)c(=O)n2Cc2cc(F)c(F)c(F)c2)cc1 [II-0392] | 20.8 µM | 1 µM |  |  | 
O=c1[nH]cc(Cl)cc1Cn1c(=O)nc(Nc2cc3c(cc2Cl)OCC3)n(Cc2cc(F)c(F)c(F)c2)c1=O [Compound I-0391] | 0.46 µM | 0.0076 µM |  |  | 
Cc1cnc(Cn2c(=O)nc(Nc3cc4cn(C)nc4cc3Cl)n(Cc3cc(F)c(F)cc3F)c2=O)nc1 [II-0425] | 5.85 µM | 0.26 µM |  |  | 
COC(=O)COc1ccc(Nc2nc(=O)n(Cc3ccc[nH]c3=O)c(=O)n2Cc2cc(F)c(F)c(F)c2)c(Cl)c1 [Compound I-0462] |  |  | 1 to 10 µM | < 0.1 µM | 
Cc1cncc(-n2c(=O)nc(Nc3cc4c(cc3C)OCC4)n(Cc3cc(F)c(F)c(F)c3)c2=O)c1 [II-0219] |  |  | 1 to 10 µM | < 0.1 µM | 
CNc1cncc(-n2c(=O)nc(Nc3cc4cn(C)nc4cc3Cl)n(Cc3cc(C#N)c(F)cc3Cl)c2=O)c1 [II-0598] |  |  | < 1 µM | < 0.1 µM | 
O=c1[nH]cccc1Cn1c(=O)nc(Nc2ccc(OCC(F)F)cc2Cl)n(Cc2cc(F)c(F)c(F)c2)c1=O [Compound I-0095] |  |  | 1 to 10 µM | < 0.1 µM | 

— patent publication US12559474B2, “Triazine derivatives having virus replication inhibitory activity and pharmaceutical composition comprising the same” (priority 2021, dated 2026)
